PubChem BioAssay AID179 (DTP/NCI, 2004)
pEC50, pIC50: −log10 of the molar value. Activity calls are given as the source filed them.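 The calls were made as follows: active = compounds giving half or more protection of infected cells from virus-caused growth loss, again on retest; inactive = the rest.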 Where a SMILES comes first, the peptide text is derived from it.

System: CEM cells HIV-1 protection, formazan growth assay
Test: NCI AIDS Antiviral Assay
Conditions: for pIC50: measured here: growth of uninfected CEM cells
Procedure, shortened: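 Human CEM cells, uninfected and HIV-1-infected, exposed to five drug concentrations; growth measured by soluble formazan assay and scored as percent protection from infection, with protecting compounds retested.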

C[C@H]1CCC/C=C/[C@@H]2C[C@H](OC(=O)CN(C)C)C[C@H]2[C@H](O)/C=C/C(=O)O1
pEC50: < 5.70 | pIC50: 6.47

O=c1oc2ccccc2c(O)c1C(c1cc(OCc2ccccc2)cc(OCc2ccccc2)c1)c1c(O)c2ccccc2oc1=O
pEC50: < 3.70 | pIC50: 5.02

CSSc1ccccc1
pEC50: < 4.70 | pIC50: 5.11

c1ccc2c(c1)[nH]c1nc3cc(-c4ccc5nc6c(nc5c4)[nH]c4ccccc46)ccc3nc12
pEC50: < 3.70 | pIC50: 3.96

CCN(CC)c1ccc(NC(=S)NN(C)C)cc1
pEC50: < 3.70 | pIC50: 4.28

N#Cc1nc(COCCOCc2ccc(F)cc2)oc1N
pEC50: < 3.70 | pIC50: < 3.70

O=C(c1ccccc1)c1nc2ccc(Cl)cc2c2c1CCCO2
pEC50: < 4.79 | pIC50: < 4.79

COc1ccccc1-c1n[nH]c(-c2ccccc2O)n1
pEC50: < 3.70 | pIC50: < 3.70

O=C1c2cc(Cc3ccccc3)c(=O)c(Cc3ccccc3)cc2C(=O)c2cc(Cc3ccccc3)c(=O)c(Cc3ccccc3)cc21
pEC50: < 3.70 | pIC50: < 3.70

COc1ccc2c(c1)C1c3ccccc3CCN1CCC2 (centres undefined)
pEC50: < 3.70 | pIC50: 4.10

CC[CH2][Sn]([CH2]CC)([O]C(=O)c1cccnc1SC)[O][Sn]([CH2]CC)([CH2]CC)[O]C(=O)c1cccnc1SC
pEC50: < 4.61 | pIC50: 5.25

O=[N+]([O-])c1cccc(/C=N/Nc2ccc(S(=O)(=O)O)cc2)c1
pEC50: < 3.14 | pIC50: 3.19

CCCCCCCCCCCC1CC(=O)NCCCN(C)CCCCN(C)CCCN1C (centres undefined)
pEC50: < 3.70 | pIC50: 5.95

CC1CCN(c2nnc(Cl)cc2C(=O)c2ccccc2)CC1
pEC50: < 3.70 | pIC50: 4.28

O=C(NC12CC3CC(CC(F)(C3)C1)C2)c1ccccc1
pEC50: < 3.88 | pIC50: 4.28

COC[C@@]12CCC(OC)C34[C@@H]5C[C@@]6(O)C(OC(=O)c7ccccc7)[C@@H]5[C@@]5(O[C@@H]5[C@@H]6OC)[C@@H](C(OC)[C@@H]31)[C@@H]4N(C)C2 (some centres undefined)
outcome: inactive

Cc1ccc(NC(=O)/C(Cl)=C(/Cl)C(=O)O)cc1
outcome: inactive

CCOP(=O)(OCC)/C(C#N)=C/c1cccc(C)c1
pEC50: < 3.47 | pIC50: < 3.47

CCOc1ccccc1N=Nc1c(-c2ccccc2)nn(C(=O)CC(=O)Nc2cccc(Cl)c2)c1-c1ccccc1
pEC50: < 4.34 | pIC50: < 4.34

O=C(CC/C=C(/CS(=O)(=O)c1ccccc1)S(=O)(=O)c1ccccc1)c1ccccc1
pEC50: < 4.00 | pIC50: < 4.00

COc1cc2c(c(OC)c1OC)-c1ccc(OC)c(=O)cc1C(NC(=O)CCCCCNc1ccc(N=[N+]=[N-])cc1[N+](=O)[O-])CC2 (centres undefined)
pEC50: < 3.70 | pIC50: 7.20

CC1CN=C(N(C(=O)Nc2ccc(Cl)c(Cl)c2)c2ccccc2)S1 (centres undefined)
pEC50: < 3.70 | pIC50: < 3.70

Cc1csc2nc(-c3ccncc3)cn12
pEC50: < 3.38 | pIC50: 3.98

CCNC(=O)c1c(O)c2ccccc2[nH]c1=O
pEC50: < 3.70 | pIC50: < 3.70

O=C(C[C@@H]1CCCN2CCCC[C@H]12)N1c2ccccc2Sc2ccc(Cl)cc21
pEC50: < 3.70 | pIC50: 4.68

Cc1ccccc1NC(=O)C(=O)C(C#N)c1ccccc1C (centres undefined)
pEC50: < 4.75 | pIC50: < 4.75

Clc1ccc2c(c1)-c1c3c(nn1-c1ccccc1)-c1ccccc1SC3O2 (centres undefined)
pEC50: < 4.87 | pIC50: < 4.87

CSC1=N/C(=C\c2ccco2)C(=O)N1CN1CCCCC1
pEC50: < 3.70 | pIC50: 3.99

O=C1/C(=C\c2ccc(Cl)cc2Cl)Sc2scc(-c3cccc([N+](=O)[O-])c3)[n+]21
outcome: inactive

CC(C)CC(=O)[O-].CC(C)CC(=O)[O-].N.N.N.N.[Co+3].[O-][Cl+3]([O-])([O-])O.[O-][Cl+3]([O-])([O-])[O-]
outcome: inactive

Oc1ccccc1C=Nc1ccc(SSc2ccc(N=Cc3ccccc3O)cc2)cc1
pEC50: < 3.70 | pIC50: 4.56

CCN(CC)C(=O)c1cccc2cccc(OC)c12
outcome: inactive

CCC12C=CCN3CCC4(c5cc(C(c6ccccn6)c6cc7ccccc7n6C)c(OC)cc5N(C)C4C(O)(C(=O)OC)C1OC(C)=O)C32 (centres undefined)
pEC50: < 4.97 | pIC50: < 4.97

C/C=C(\CC)C(C#N)O[Si](C)(C)C (centres undefined)
outcome: inactive

COc1ccc(C(=C(Cl)c2ccccc2)c2ccc(OC)cc2)cc1
pEC50: < 3.70 | pIC50: 4.32

CCCCCC(=O)C(C)C1=Nc2nnc(CCCCCCCc3nnc4n3C(=O)C(C(C)C(=O)CCCCC)=N4)n2C1=O (centres undefined)
pEC50: < 5.61 | pIC50: < 5.61

OC1NC2Nc3ccccc3NC2NC1O (centres undefined)
pEC50: < 3.70 | pIC50: < 3.70

NC(CO)C(=O)N1CCCC1C(=O)NC(Cc1ccc(O)cc1)C(=O)N1CCCC1C(=O)NC(CO)C(=O)O (centres undefined) (H-SPYPS-OH; configuration not given here)
pEC50: < 3.95 | pIC50: < 3.95

COc1ccc(C(O)C(=O)c2nc3ccc([N+](=O)[O-])cc3[nH]c2=O)cc1 (centres undefined)
pEC50: 3.97 | pIC50: 3.89

CCc1cc(=O)oc2c3c(cc(OC(C)C)c12)O[C@H](C)[C@@H](C)C3=O
pEC50: < 3.70 | pIC50: 4.81

O=C(CCN1CCOCC1)c1ccc(Oc2ccc(F)cc2)cc1
outcome: inactive

O=S(=O)(c1ccc(O)cc1)c1ccc(O)cc1
pEC50: < 3.70 | pIC50: 3.80

CC1=NN(c2nc(N)nc(NS(=O)(=O)c3cc(C)c(Cl)cc3S)n2)C(C)(C)C1
pEC50: 3.98 | pIC50: 3.32
